These results are taken from PMC4129108, “The natural triterpene 3β,6β,16β-trihydroxy-lup-20(29)-ene obtained from the flowers of Combretum leprosum induces apoptosis in MCF-7 breast cancer cells” (BMC Complementary and Alternative Medicine, 2014).

≈ marks a conversion by molar mass, not a printed value.

Assay [1] relates to MRC5 (lung normal fibroblast). The experiment in a line: XTT cell viability assay, MRC5 normal fibroblasts. Particulars: Homo sapiens. It counts as cell-based. The method, then: (§1) The human cell lines MCF-7 (breast adenocarcinoma), HepG2 (hepatoma), T24 (bladder cancer), CACO-2 (colorectal adenocarcinoma) and MRC5 (lung normal fibroblast) were obtained from the Rio de Janeiro Cell Bank (Rio de Janeiro, RJ, Brazil). The HCT116 cell (colorectal carcinoma), and HT29 cell (colorectal adenocarcinoma) were kindly provided by Dr. Annette K. Larsen (Institut National de la Santé et de la Recherche Médicale - INSERM, Paris, França). All cell lines except MCF-7 were grown in DMEM supplemented with 10% or 20% (for CACO-2) FBS, 100 units.mL^-1 penicillin and 100 μg.mL^-1 streptomycin at 37°C in a humidified atmosphere of 5% CO2. MCF-7 cells were maintained in RPMI-1640 supplemented with 20% FBS at the same conditions described above.
(§2) The cytotoxic potential of the TTHL was evaluated by the XTT assay in human tumor cell lines as well as in MRC5 normal fibroblasts. Cells (1 × 10^4 cells) were seeded on 96-well plates in growth medium and incubated overnight. Afterwards, TTHL (0.5, 1.0, 2.5, 5.0, and 10 μg/mL) was added to each well and incubated for 24, 48, 72, and 120 h. Mitoxantrone, a cytostatic anthracenedione that intercalates in DNA and increases the incidence of double-strand breaks by stabilizing the cleavable complex of topoisomerase II and DNA, was used as positive control. At the end of each treatment, cell viability was assessed according to the manufacturer’s instructions. Briefly, after discarding the medium, 1 mL of XTT labeling mixture was added to the cells and incubated for 2 h at 37°C. Absorbance was measured with a SpectraMax reader (Bio-Rad, USA) at a test wavelength of 492 nm (A492) and a reference wavelength of 690 nm (A690). The final result corresponds to A492-A690. The absorbance of negative control cells was set as 100% viability, and the values for treated cells were calculated as a percentage of the control.
(§3) The IC20, IC50, and IC80 values and their 95% confidence intervals (CI 95%) were obtained by nonlinear regression using GraphPad Prism v5 program (Intuitive Software for Science, San Diego, CA, USA). Selective index (SI) was calculated by IC50 in MRC5 cells/IC50 in tumoral cells. All experiments were independently repeated at least three times, with triplicate samples for each treatment. Results are expressed as means ± standard deviation (SD). Data were analyzed by one-way analysis of variance (ANOVA), and means were compared using Tukey test, with P ≤ 0.05 considered as statistically significant.

The test system of assay [2] is MCF-7 (breast adenocarcinoma). The experiment in a line: XTT cell viability assay, MCF-7. Particulars: for IC50: XTT. In kind it is cell-based, human. As to the method: as §1, §2, §3
In general terms: Formazan colour is commonly taken as a measure of viable cells.

The test system of assay [3] is HT29 cell (colorectal adenocarcinoma). In words: XTT cell viability assay, HT29. In kind it is cell-based, human. As to conditions: for IC50: Homo sapiens, HT-29, XTT. The method, then:
as §1, §2, §3

On to `C=C(C)[C@@H]1CC[C@@]2(C)[C@H]1[C@H]1CC[C@@H]3[C@@]4(C)CC[C@H](O)C(C)(C)[C@@H]4[C@H](O)C[C@@]3(C)[C@]1(C)C[C@@H]2O` [TTHL, 3β,6β,16β-trihydroxy-lup-20(29)-ene], for which the IC50 in assay [1] (MRC5, 24 h treatment) amounted to 8.4 ± 0.28 µg/mL (≈ 18.3 µM); in assay [1] (MRC5, 48 h treatment), 7.6 ± 0.14 µg/mL (≈ 16.6 µM); in assay [1] (MRC5, 72 h treatment), 7.4 ± 0.15 µg/mL (≈ 16.1 µM); in assay [1] (MRC5, 120 h treatment) it was 6.84 ± 0.1 µg/mL (≈ 14.9 µM); in assay [2] (Homo sapiens, MCF7, MCF-7, 24 h treatment), 1.36 ± 0.05 µg/mL (≈ 2.96 µM); in assay [2] (Homo sapiens, MCF7, MCF-7, 48 h treatment), 0.73 ± 0.05 µg/mL (≈ 1.59 µM). Moreover, the IC50 is 0.63 ± 0.04 µg/mL (≈ 1.37 µM) in assay [2] (Homo sapiens, MCF7, MCF-7, 72 h treatment); 0.3 ± 0.04 µg/mL (≈ 0.654 µM) in assay [2] (Homo sapiens, MCF7, MCF-7, 120 h treatment); 8 ± 0.14 µg/mL (≈ 17.4 µM) in assay [3] (HT29, 24 h treatment); 7 ± 0.42 µg/mL (≈ 15.3 µM) in assay [3] (HT29, 48 h treatment); 6.15 ± 0.21 µg/mL (≈ 13.4 µM) in assay [3] (HT29, 72 h treatment); 5.3 ± 0.28 µg/mL (≈ 11.6 µM) in assay [3] (HT29, 120 h treatment). Besides, the IC20 in assay [2] (Homo sapiens, MCF7, MCF-7, 24 h, determined by XTT assay, read-out: IC20 (20% inhibitory concentration)) worked out at 0.5 µg/mL (≈ 1.09 µM). The IC80 in assay [2] (Homo sapiens, MCF7, MCF-7, 24 h, determined by XTT assay, read-out: IC80 (80% inhibitory concentration)) stood at 3.7 µg/mL (≈ 8.07 µM). The “Selectivity index (SI)” value is listed as 10 X in assay [2] (IC50 in MRC5 cells/IC50 in MCF-7, 48 h); 12 X in assay [2] (IC50 in MRC5 cells/IC50 in MCF-7, 72 h); 23 X in assay [2] (IC50 in MRC5 cells/IC50 in MCF-7, 120 h); 1 X in assay [3] (IC50 in MRC5 cells/IC50 in HT29, 24 h); 1 X in assay [3] (IC50 in MRC5 cells/IC50 in HT29, 48 h); 1 X in assay [3] (IC50 in MRC5 cells/IC50 in HT29, 72 h). Further, in assay [3] (IC50 in MRC5 cells/IC50 in HT29, 120 h), the “Selectivity index (SI)” value was 1 X.

By IC50 is commonly meant the concentration that inhibits the measured activity by half. Lower therefore signals greater potency in that assay.
